The assay deals with T1, cellular PARG (Homo sapiens, UniProt Q86W56).
T1 construct: endogenous in cells; host or cells: HeLa
T1 sequence (Q86W56 whole entry): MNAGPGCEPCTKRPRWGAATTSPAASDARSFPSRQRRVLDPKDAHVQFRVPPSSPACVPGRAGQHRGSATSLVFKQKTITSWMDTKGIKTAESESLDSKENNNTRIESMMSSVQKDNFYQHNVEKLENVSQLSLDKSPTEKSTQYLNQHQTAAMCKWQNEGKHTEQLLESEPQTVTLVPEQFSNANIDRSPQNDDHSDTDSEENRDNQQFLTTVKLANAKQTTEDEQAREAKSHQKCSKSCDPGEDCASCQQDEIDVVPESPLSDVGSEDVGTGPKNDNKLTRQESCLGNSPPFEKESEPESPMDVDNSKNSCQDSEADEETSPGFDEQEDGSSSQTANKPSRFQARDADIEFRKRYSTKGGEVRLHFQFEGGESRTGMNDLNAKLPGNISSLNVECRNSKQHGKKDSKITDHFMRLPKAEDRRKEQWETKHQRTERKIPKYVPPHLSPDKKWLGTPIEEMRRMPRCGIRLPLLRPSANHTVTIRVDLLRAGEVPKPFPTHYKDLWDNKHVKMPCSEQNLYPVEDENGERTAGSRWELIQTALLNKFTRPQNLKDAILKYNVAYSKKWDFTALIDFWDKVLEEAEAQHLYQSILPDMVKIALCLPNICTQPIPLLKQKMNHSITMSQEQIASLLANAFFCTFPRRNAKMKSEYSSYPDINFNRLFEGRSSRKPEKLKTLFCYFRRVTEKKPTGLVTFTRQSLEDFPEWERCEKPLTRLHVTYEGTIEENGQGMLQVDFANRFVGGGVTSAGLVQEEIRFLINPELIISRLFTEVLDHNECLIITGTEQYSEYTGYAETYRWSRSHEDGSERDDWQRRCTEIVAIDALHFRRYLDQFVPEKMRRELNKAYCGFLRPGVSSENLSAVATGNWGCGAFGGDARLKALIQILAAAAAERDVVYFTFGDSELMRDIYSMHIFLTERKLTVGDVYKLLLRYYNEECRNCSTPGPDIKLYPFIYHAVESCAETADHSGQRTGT
The assay is described as follows: Nuclear PAR accumulation assay (immunofluorescence high-content imaging, MMS-treated HeLa cells). The format is cell-based. Conditions: 1 hour compound then MMS 50 μg/mL for an additional hour. Here is the method:
HeLa cells were plated at 15,000 cells/well in a 96-well plate the day before compound treatment and then treated with varying concentrations of test compound and incubated for 1 hour at 37° C.+5% CO2. Following test compound treatment, methylmethane sulfonate (MMS) was added to a final concentration of 50 μg/mL and the cells were incubated for an additional hour. Following treatment, the cells were fixed with ice cold 95% methanol and the plates sealed and placed at -20° C. for 15 minutes. The cells were then washed once with phosphate buffered saline (PBS) and permeabilized with 0.10% Triton-X 100 for 20 minutes at room temperature. […] The cells were then washed three times with PBS before incubation with a fluorescently conjugated goat anti-mouse antibody (Invitrogen A32723) diluted 1:500 in 5% FBS+0.1% Tween-20+PBS for 1 hour at room temperature. The cells were again washed three times with PBS and the nuclei labeled by incubating with 1 μg/mL DAPI (4′,6-diamidino-2-phenylindole). Nuclear PAR accumulation was evaluated using high-content fluorescence microscopy. Four fields for each well were acquired at 20× magnification resulting in at least 1,000 cells analyzed per well. […] Both the average intensity per nucleus and percent PAR positive cells were quantified. […] Concentration-response-curves and IC50 values were generated using four parameter logistic curve fit software.
Representative data for exemplary compounds is presented in Table 32, Table 33 and Table 34.
What is called IC50 is the concentration that gives 50% inhibition. Lower therefore signals greater potency in that assay. The compound `Cn1cc(CN2C(=O)c3cc(S(=O)(=O)NC4(C)CC4)ccc3N3C2=NC[C@H]3/C=C/c2ccccc2)cn1` [Example 40, (R,E)-4-((1-methyl-1H-pyrazol-4-yl)methyl)-N-(1-methylcyclopropyl)-5-oxo-1-styryl-1,2,4,5-tetrahydroimidazo[1,2-a]quinazoline-7-sulfonamide] registered an IC50 below 100 nM.
The result for `C[C@@H]1CN=C2N(Cc3cnn(C)c3)C(=O)c3cc(S(=O)(=O)NC4(C)CC4)sc3N21` [Example 41, (R)-8-methyl-5-((1-methyl-1H-pyrazol-4-yl)methyl)-N-(1-methylcyclopropyl)-4-oxo-4,5,7,8-tetrahydroimidazo[1,2-a]thieno[3,2-e]pyrimidine-2-sulfonamide] reads 100 to 1000 nM.
The result for `CC#C[C@@H]1CN=C2N(C)C(=O)c3cc(S(=O)(=O)NC4(C)CC4)cc(Br)c3N21` [Example 42, (R)-9-bromo-4-methyl-N-(1-methylcyclopropyl)-5-oxo-1-(prop-1-yn-1-yl)-1,2,4,5-tetrahydroimidazo[1,2-a]quinazoline-7-sulfonamide] reads below 100 nM.
In the case of `[2H]C([2H])(c1cnn(C)c1)N1C(=O)c2cc(S(=O)(=O)NC3(C)CC3)ccc2N2C1=NC[C@H]2C#C` [Example 43, (R)-1-ethynyl-4-((1-methyl-1H-pyrazol-4-yl)methyl-d2)-N-(1-methylcyclopropyl)-5-oxo-1,2,4,5-tetrahydroimidazo[1,2-a]quinazoline-7-sulfonamide], the half-inhibitory concentration (IC50) was below 100 nM.
The result for `Cn1cc(CN2C(=O)c3cc(S(=O)(=O)NC4(C)CC4)ccc3N3C2=NC[C@H]3C2CCOCC2)cn1` [Example 44, (R)-4-((1-methyl-1H-pyrazol-4-yl)methyl)-N-(1-methylcyclopropyl)-5-oxo-1-(tetrahydro-2H-pyran-4-yl)-1,2,4,5-tetrahydroimidazo[1,2-a]quinazoline-7-sulfonamide] reads 100 to 1000 nM.
The result for `Cn1cc(CN2C(=O)c3cc(S(=O)(=O)NC4(C)CC4)ccc3N3C2=NC[C@H]3C2CCC(F)(F)CC2)cn1` [Example 45, (R)-1-(4,4-difluorocyclohexyl)-4-((1-methyl-1H-pyrazol-4-yl)methyl)-N-(1-methylcyclopropyl)-5-oxo-1,2,4,5-tetrahydroimidazo[1,2-a]quinazoline-7-sulfonamide] reads below 100 nM; that for `CN(C)C(=O)N1CCN(c2cc(S(=O)(=O)NC3(C)CC3)cc3c2N2CC(C)(C)N=C2N(C)C3=O)CC1` [Example 46, N,N-dimethyl-4-(2,2,4-trimethyl-7-(N-(1-methylcyclopropyl)sulfamoyl)-5-oxo-1,2,4,5-tetrahydroimidazo[1,2-a]quinazolin-9-yl)piperazine-1-carboxamide], below 100 nM; that for `Cn1cc(CN2C(=O)c3cc(S(=O)(=O)NC4(C)CC4)ccc3N3C2=NC[C@H]3C(F)F)cn1` [Example 47, (S)-1-(difluoromethyl)-4-((1-methyl-1H-pyrazol-4-yl)methyl)-N-(1-methylcyclopropyl)-5-oxo-1,2,4,5-tetrahydroimidazo[1,2-a]quinazoline-7-sulfonamide], below 100 nM.
The result for `Cn1cc(CN2C(=O)c3cc(S(=O)(=O)NC4(C)CC4)ccc3N3C2=NC[C@H]3C2CCCC2)cn1` [Example 48, (R)-1-cyclopentyl-4-((1-methyl-1H-pyrazol-4-yl)methyl)-N-(1-methylcyclopropyl)-5-oxo-1,2,4,5-tetrahydroimidazo[1,2-a]quinazoline-7-sulfonamide] reads below 100 nM.
As for `[2H]C([2H])(c1cnn(C)c1)N1C(=O)c2cc(S(=O)(=O)NC3(C)CC3)ccc2N2C1=NC[C@H]2C#CC1(C)CC1` [Example 49, (R)-4-((1-methyl-1H-pyrazol-4-yl)methyl-d2)-N-(1-methylcyclopropyl)-1-((1-methylcyclopropyl)ethynyl)-5-oxo-1,2,4,5-tetrahydroimidazo[1,2-a]quinazoline-7-sulfonamide], the half-maximal inhibitory concentration (IC50) is below 100 nM.
The result for `CNC(=O)c1ccc(-c2cc(S(=O)(=O)NC3(C)CC3)cc3c2N2C(=N[C@H]4CCC[C@H]42)N(C)C3=O)cn1` [Example 50, N-methyl-5-((7aS,10aR)-6-methyl-3-(N-(1-methylcyclopropyl)sulfamoyl)-5-oxo-6,7a,8,9,10,10a-hexahydro-5H-cyclopenta[4,5]imidazo[1,2-a]quinazolin-1-yl)picolinamide] reads 100 to 1000 nM.
The result for `C#C[C@@H]1CN=C2N(C)C(=O)c3cc(S(=O)(=O)NC4(C)CC4)cc(Cl)c3N21` [Example 51, (R)-9-chloro-1-ethynyl-4-methyl-N-(1-methylcyclopropyl)-5-oxo-1,2,4,5-tetrahydroimidazo[1,2-a]quinazoline-7-sulfonamide] reads below 100 nM.
The result for `CN1C(=O)c2cc(S(=O)(=O)NC3(C)CC3)cc(C3=CCN(C(=O)C4CC4)CC3)c2N2C1=N[C@H]1CCC[C@H]12` [Example 52, (7aS,10aR)-1-(1-(cyclopropanecarbonyl)-1,2,3,6-tetrahydropyridin-4-yl)-6-methyl-N-(1-methylcyclopropyl)-5-oxo-6,7a,8,9,10,10a-hexahydro-5H-cyclopenta[4,5]imidazo[1,2-a]quinazoline-3-sulfonamide] reads below 100 nM; that for `C[C@@H]1CN=C2N(Cc3cnn(C)c3)C(=O)c3cc(S(=O)(=O)NC4(C)CC4)cc(N4C[C@H](C)N[C@@H](C)C4)c3N21` [Example 53, (R)-9-((3S,5S)-3,5-dimethylpiperazin-1-yl)-1-methyl-4-((1-methyl-1H-pyrazol-4-yl)methyl)-N-(1-methylcyclopropyl)-5-oxo-1,2,4,5-tetrahydroimidazo[1,2-a]quinazoline-7-sulfonamide], 1000 to 10000 nM.
As for `C[C@H]1CN(c2cc(S(=O)(=O)NC3(C)CC3)cc3c2N2CC(C)(C)N=C2N(C)C3=O)C[C@H](C)N1` [Example 54, 9-((3S,5S)-3,5-dimethylpiperazin-1-yl)-2,2,4-trimethyl-N-(1-methylcyclopropyl)-5-oxo-1,2,4,5-tetrahydroimidazo[1,2-a]quinazoline-7-sulfonamide], the half-inhibitory concentration (IC50) is 100 to 1000 nM.
`[2H]C([2H])(c1cnn(C)c1)N1C(=O)c2cc(S(=O)(=O)NC3(C)CC3)ccc2N2C1=NC[C@H]2C#CCN(C)C` [Example 55, (R)-1-(3-(dimethylamino)prop-1-yn-1-yl)-4-((1-methyl-1H-pyrazol-4-yl)methyl-d2)-N-(1-methylcyclopropyl)-5-oxo-1,2,4,5-tetrahydroimidazo[1,2-a]quinazoline-7-sulfonamide] displayed a half-maximal inhibitory concentration (IC50) below 100 nM.
The result for `CN(C)CC#C[C@@H]1CN=C2N(C)C(=O)c3cc(S(=O)(=O)NC4(C)CC4)cc(Cl)c3N21` [Example 56, (R)-9-chloro-1-(3-(dimethylamino)prop-1-yn-1-yl)-4-methyl-N-(1-methylcyclopropyl)-5-oxo-1,2,4,5-tetrahydroimidazo[1,2-a]quinazoline-7-sulfonamide] reads below 100 nM; that for `COc1ccc(C(=O)/C=C/C(=O)N2CCN(c3cc(S(=O)(=O)NC4(C)CC4)cc4c3N3C(=NC[C@H]3C)N(C)C4=O)CC2)cc1` [Example 57, (R,E)-9-(4-(4-(4-methoxyphenyl)-4-oxobut-2-enoyl)piperazin-1-yl)-1,4-dimethyl-N-(1-methylcyclopropyl)-5-oxo-1,2,4,5-tetrahydroimidazo[1,2-a]quinazoline-7-sulfonamide], 100 to 1000 nM; that for `CNC(=O)c1ccc(-c2cc(S(=O)(=O)NC3(C)CC3)cc3c2N2CC(C)(C)N=C2N(C)C3=O)cn1` [Example 58, N-methyl-5-(2,2,4-trimethyl-7-(N-(1-methylcyclopropyl)sulfamoyl)-5-oxo-1,2,4,5-tetrahydroimidazo[1,2-a]quinazolin-9-yl)picolinamide], 100 to 1000 nM.
The result for `CN1C(=O)c2cc(S(=O)(=O)NC3(C)CC3)cc(C3=CCN(C(=O)C4CC4)CC3)c2N2CC(C)(C)N=C12` [Example 59, 9-(1-(cyclopropanecarbonyl)-1,2,3,6-tetrahydropyridin-4-yl)-2,2,4-trimethyl-N-(1-methylcyclopropyl)-5-oxo-1,2,4,5-tetrahydroimidazo[1,2-a]quinazoline-7-sulfonamide] reads 100 to 1000 nM; that for `Cc1cc(F)ccc1-c1cc(S(=O)(=O)NC2(C)CC2)cc2c1N1CC(C)(C)N=C1N(C)C2=O` [Example 61, 9-(4-fluoro-2-methylphenyl)-2,2,4-trimethyl-N-(1-methylcyclopropyl)-5-oxo-1,2,4,5-tetrahydroimidazo[1,2-a]quinazoline-7-sulfonamide], 100 to 1000 nM.
The result for `C[C@@H]1CN=C2N(C)C(=O)c3cc(S(=O)(=O)NC4(C)CC4)cc(-c4ccccc4CO)c3N21` [Example 62, (R)-9-(2-(hydroxymethyl)phenyl)-1,4-dimethyl-N-(1-methylcyclopropyl)-5-oxo-1,2,4,5-tetrahydroimidazo[1,2-a]quinazoline-7-sulfonamide] reads 1000 to 10000 nM; that for `C[C@@H]1CN=C2N(C)C(=O)c3cc(S(=O)(=O)NC4(C)CC4)cc(-c4ccccc4C#N)c3N21` [Example 63, (R)-9-(2-cyanophenyl)-1,4-dimethyl-N-(1-methylcyclopropyl)-5-oxo-1,2,4,5-tetrahydroimidazo[1,2-a]quinazoline-7-sulfonamide], 1000 to 10000 nM; that for `C[C@@H]1CN=C2N(CCCO)C(=O)c3cc(S(=O)(=O)NC4(C)CC4)ccc3N21` [Example 64, (R)-4-(3-hydroxypropyl)-1-methyl-N-(1-methylcyclopropyl)-5-oxo-1,2,4,5-tetrahydroimidazo[1,2-a]quinazoline-7-sulfonamide], 1000 to 10000 nM.

These data come from patent US20260285875A1, “INHIBITORS OF PARG” (858 Therapeutics, Inc., priority 2023, published 2026).
